# Measurements reported in patent publication EP1380574B1, “9-aminoacridine derivates and process for the preparation thereof” (Samjin Pharmaceutical Co., Ltd., priority 1998, dated 2000).
# Columns and labels:
# SKMEL-2 (human melanoma) = experiment: In vitro antitumor effect against human tumor cell lines, SRB assay; assay type: cell-based; details: SK-MEL-2 cells, 48 hours with drug
# Description: (§1) Experimental 1 : In vitro antitumor effect against human tumor cell lines.
# (§2) A. Tumor cell lines : A549 (human non-small lung cell)
# (§3) • SKOV-3 (human ovarian) • HCT-15 (human colon) • XF-498 (human CNS) • SKMEL-2 (human melanoma)
# (§4) • a. Human solid tumor cell lines, A549(non-small lung cell), SKMEL-2(melanoma), HCT-15(colon), SKOV-3(ovarian) and XF-498(CNS) were cultured in 5% CO2 incubators using the RPMI 1640 media containing 10% FBS at 37°C, while with transfer-culturing successively once or twice per week. Cell cultures were dissolved in a solution of 0.25% trysin and 3 mmol CDTA PBS(-) to separate the cells sticked on the culture media. • b. 5× 10^3∼2× 10^4 cells were added into each well of 96-well plate and cultured in 5% CO2 incubator at 37°C for 24 hours. • c. Each sample drug was dissolved in a little DMSO and diluted with the used medium to a prescribed concentration for experiment, while the final concentration of DMSO was adjusted below 0.5%. • d. Medium of each well cultured for 24 hours as above b. was removed by aspiration. Each 200µl of drug samples prepared in c. was added into each well and the wells were cultured for 48 hours. Tz (time zero) plates were collected at the point of time drugs were added. • e. According to the SRB assay method, cell fixing with TCA, staining with 0.4% SRB solution, washing with 1% acetic acid and elution of dye with 10mmol Tris solution were carried out on Tz plates and culture-ended plates, and then, OD values were measured at 520 nm.
# (§5) • a. Time zero(Tz) value was determined with measuring the SRB protein value at the point of time drugs were added. • b. Control value (C) was determined with the OD value of an well untreated with drug. • c. Drug-treated test value (T) was determined with the OD value of drug-treated well. • d. Effects of drugs were estimated with growth stimulation, net growth inhibition and net killing calculated from Tz, C and T values. • e. If T ≥ Tz, cellular response function was calculated by 100x(T-Tz)/(C-Tz), and, if T 〈 Tz, by 100× (T-Tz)/Tz.
# HCT-15 (human colon) = experiment: as above; assay type: cell-based; details: HCT 15 cells, 48 hours with drug
# Description: as §1, §2, §3, §4, §5
# XF-498 (human CNS) = experiment: as above; assay type: cell-based; details: XF-498 cells, 48 hours with drug
# Description: as §1, §2, §3, §4, §5
# SKOV-3 (human ovarian) = experiment: as above; assay type: cell-based; details: SK-OV-3 cells, 48 hours with drug
# Description: as §1, §2, §3, §4, §5
# [1] = tested on: A549 (human non-small lung cell); experiment: as above; assay type: cell-based; details: A 549 cells, 48 hours with drug
# Description: as §1, §2, §3, §4, §5
# Topoisomerase II = experiment: Inhibition of Topoisomerase II activity (DNA relaxation assay / DNA cleavage assay with supercoiled pBR322 DNA); assay type: biochemical; details: Topo II, 30 minutes at 37°C, table does not say which of the two assays
# Description: Experimental 3 : Inhibition effects against the Topoisomerase II activities
# The present compounds were tested for inhibition of Topoisomerase II activity by means of the relaxation assay using supercoiled pBR322 DNA as the substrate. Topo II and a sample inhibitor were added to a reaction system (50mmol Tris-HCl, pH 7.5, 50mmol KCl, 20mmol MgCl2, 0.5mmol EDTA, 2mmol ATP, 60µg/mℓ BSA) containing supercoiled pBR322 DNA and reacted for 30 minutes at 37°C. Then, a quarter by volume of Stop buffer (5% SDS, 50mmol EDTA, 30% glycerol, 0.1mg/mℓ xylene cyanol, 0.1mg/mℓ BPB) was added to the reaction system to stop the reaction. The resulting product went through electrophoresis on 0.7% agarose gel and was stained by ethidium bromide solution. Mobility of DNA was measured under ultraviolet rays.
# Topo II and a sample inhibitor were added to cleavage buffer (30mmol Tris-HCl, pH 7.5, 60mmol KCl, 10mmol MgCl2, 15mmol β -mercaptoethanol, 30µg/mℓ BSA) containing supercoiled pBR322 DNA and allowed to react for 30 minutes at 37°C. Then, […] by 1% was added to the reaction system to stop the reaction. Then, proteinase K was added thereto up to the concentration of 50 µg/mℓ and allowed to react for 30 minutes at 56°C. The reaction product was treated with phenol/chloroform to purify DNA, and the obtained DNA was loaded on agarose gel electrophoresis, transferred to nitrocellulose membrane and hybridized with probe DNA labelled with radioisotope. Then, the nitrocellulose membrane was covered with an X-ray film and exposed to be sensitized and developed, whereby the degree of cleavage of DNA was measured.
# [2] = tested on: P388 (mouse lymphoid neoplasma cell); experiment: In vitro antitumor effect against animal leukemia cells, dye exclusion assay (trypan blue); assay type: cell-based; details: 48 hours, dye exclusion test using trypan blue, read-out: IC50 (concentration showing 50 % cell growth inhibition)
# From the text: Experimental 2 : In vitro antitumor effects against animal leukemia cells.
# • Tumor cell lines : P388 (mouse lymphoid neoplasma cell)
# B. Method : Dye Exclusion Assay.
# ICR mice = experiment: Acute toxicity test (LD50), Litchfield-Wilcoxon method; assay type: in vivo; details: i.p., ICR mice (male), observed during 14 days
# [3] = as above; assay type: in vivo; details: mouse, in vivo, ICR mice (male), observed during 14 days
IC50 (Topoisomerase II),IC50 [2],Compound,ED50 (SKMEL-2 (human melanoma)),ED50 (HCT-15 (human colon)),ED50 (XF-498 (human CNS)),ED50 (SKOV-3 (human ovarian)),ED50 [1],also measured
5 µg/mL,,"CCCC=Nc1cc(CO)cc(Nc2c3ccccc3nc3ccccc23)c1 [Example 37, 3-(acridin-9-yl)amino-5-(butylideneamino)phenylmethanol]",0.89 µ g/ml,0.35 µ g/ml,0.36 µ g/ml,0.93 µ g/ml,0.90 µ g/ml,
5 µg/mL,,"CC=Nc1cc(CO)cc(Nc2c3ccccc3nc3ccccc23)c1 [Example 35, 3-(acridin-9-yl)amino-5-(ethylideneamino)phenylmethanol]",,,,,,
3 µg/mL,,"COc1cccc(NC(=O)OCc2cccc(Nc3c4ccccc4nc4ccccc34)c2)c1 [Example 20, 3-(acridin-9-yl)aminobenzyl N-(3-methoxyphenyl)carbamate]",,,,,,
3 µg/mL,0.1 µg/mL,"NCC(=O)Nc1cc(CO)cc(Nc2c3ccccc3nc3ccccc23)c1 [Example 44, N-[3-(acridin-9-yl)amino-5-(hydroxymethyl)phenyl] aminoethaneamide]",,,,,,
5 µg/mL,,"COc1cc(NC(=O)OCc2cccc(Nc3c4ccccc4nc4ccccc34)c2)cc(OC)c1OC [Example 22, 3-(acridin-9-yl)aminobenzyl N-(3,4,5-trimethoxyphenyl)carbamate]",,,,,,
3 µg/mL,,"COc1cc(NC(=O)OCc2cccc(Nc3c4ccccc4nc4ccccc34)c2)cc(OC)c1 [Example 21, 3-(acridin-9-yl)aminobenzyl N-(3,5-dimethoxyphenyl)carbamate]",,,,,,
3 µg/mL,0.1 µg/mL,"N[C@@H](Cc1ccccc1)C(=O)Nc1cc(CO)cc(Nc2c3ccccc3nc3ccccc23)c1 [Example 46, N-[3-(acridin-9-yl)amino-5-(hydroxymethyl)phenyl] (2S)-2-amino-3-phenylpropaneamide]",,,,,,
5 µg/mL,,"COc1cc(NC(=S)OCc2cc(N)cc(Nc3c4ccccc4nc4ccccc34)c2)cc(OC)c1OC [Example 19, [3-(acridin-9-yl)amino-5-amino]benzyl N-(3,4,5-trimethoxyphenyl)thiocarbamate]",,,,,,
3 µg/mL,,"COc1cccc(NC(=O)OCc2cc(N)cc(Nc3c4ccccc4nc4ccccc34)c2)c1 [Example 2, [3-(acridin-9-yl)amino-5-amino]benzyl N-(3-methoxyphenyl)carbamate]",1.08 µ g/ml,0.97 µ g/ml,0.71 µ g/ml,0.68 µ g/ml,1.12 µ g/ml,

# Further lines, the compound ahead of its results:
Compound,IC50 (Topoisomerase II),IC50 [2],ED50 (SKMEL-2 (human melanoma)),ED50 (HCT-15 (human colon)),ED50 (XF-498 (human CNS)),ED50 (SKOV-3 (human ovarian)),ED50 [1],also measured
"COc1cc(NC(=O)OCc2cc(N)cc(Nc3c4ccccc4nc4ccccc34)c2)cc(OC)c1OC [Example 4, [3-(acridin-9-yl)amino-5-amino]benzyl N-(3,4,5-trimethoxyphenyl)carbamate]",5 µg/mL,,0.20 µ g/ml,0.24 µ g/ml,0.23 µ g/ml,0.19 µ g/ml,0.19 µ g/ml,
"Nc1cc(COC(=O)Nc2cccc(Cl)c2)cc(Nc2c3ccccc3nc3ccccc23)c1 [Example 14, [3-(acridin-9-yl)amino-5-amino]benzyl N-(3-chlorophenyl)carbamate]",1 µg/mL,1 µg/mL,,,,,,
"N.N.[Cl][Pt][Cl] [Cisplatin, reference compound]",,,0.71 µ g/ml,3.03 µ g/ml,0.77 µ g/ml,0.71 µ g/ml,0.81 µ g/ml,
"CCC=Nc1cc(CO)cc(Nc2c3ccccc3nc3ccccc23)c1 [Example 36, 3-(acridin-9-yl)amino-5-(propylideneamino)phenylmethanol]",3 µg/mL,,,,,,,
"Nc1cc(COC(=O)Nc2cc(F)cc(F)c2)cc(Nc2c3ccccc3nc3ccccc23)c1 [Example 12, [3-(acridin-9-yl)amino-5-amino]benzyl N-(3,5-difluorophenyl)carbamate]",0.5 µg/mL,,,,,,,LD50 (ICR mice): 150 mg/kg
"COc1cc(NC(=O)OCc2cc(N)cc(Nc3c4ccccc4nc4ccccc34)c2)cc(OC)c1 [Example 3, [3-(acridin-9-yl)amino-5-amino]benzyl N-(3,5-dimethoxyphenyl)carbamate]",3 µg/mL,1.1 µg/mL,,,,,,
"C[C@H](N)C(=O)Nc1cc(CO)cc(Nc2c3ccccc3nc3ccccc23)c1 [Example 45, N-[3-(acridin-9-yl)amino-5-(hydroxymethyl)phenyl] (2S)-2-aminopropaneamide]",0.5 µg/mL,0.05 µg/mL,0.25 µ g/ml,0.86 µ g/ml,0.88 µ g/ml,0.21 µ g/ml,0.01 µ g/ml,LD50 at 14 days ([3]; ip): 730 mg/kg; LD50 at 14 days ([3]; iv): 133 mg/kg
"Cc1cc(C)cc(NC(=O)OCc2cc(N)cc(Nc3c4ccccc4nc4ccccc34)c2)c1 [Example 6, [3-(acridin-9-yl)amino-5-amino]benzyl N-(3,5-dimethylphenyl)carbamate]",3 µg/mL,,0.40 µ g/ml,0.33 µ g/ml,0.37 µ g/ml,0.36 µ g/ml,0.72 µ g/ml,
"COc1cc(NC(=S)OCc2cc(N)cc(Nc3c4ccccc4nc4ccccc34)c2)cc(OC)c1 [Example 18, [3-(acridin-9-yl)amino-5-amino]benzyl N-(3,5-dimethoxyphenyl)thiocarbamate]",3 µg/mL,0.7 µg/mL,,,,,,
"Nc1cc(COC(=O)Nc2ccccc2)cc(Nc2c3ccccc3nc3ccccc23)c1 [Example 1, [3-(acridin-9-yl)amino-5-amino]benzyl N-phenylcarbamate]",1 µg/mL,,0.49 µ g/ml,0.57 µ g/ml,0.44 µ g/ml,1.15 µ g/ml,0.96 µ g/ml,
